Laboratory results: patent US12655173B2, “Hybrid amide derivatives of amphotericin B” (priority 2020, dated 2026)
Values after ≈ are worked out from the molar mass of the structure shown.

What was measured:
[1] = In vivo toxicity in murine model: mice alive / distress-free; conditions: 45 mg/kg IV, 24 h
[2] = system: EMFR-S678P, echinocandin resistant; experiment: MIC against azole and echinocandin resistant fungal strains (CLSI); type: cell-based; conditions: read-out: MIC EMFR-S678P
Protocol: (§1) This experiment was performed following the standard CLSI protocol.

[3] = system: Af F16134, azole resistant (M220K); experiment: as above; type: cell-based; conditions: read-out: MIC Af F16134
Protocol: as §1

[4] = system: Af F16216, azole resistant (L98H + TR); experiment: as above; type: cell-based; conditions: read-out: MIC Af F16216
Protocol: as §1

Af 3626 (ATCC strain) = experiment: as above; type: cell-based; conditions: read-out: MIC Af 3626
Protocol: as §1

[5] = system: Af F7075, azole resistant (G54E); experiment: as above; type: cell-based; conditions: read-out: MIC Af F7075
Protocol: as §1

[6] = In vivo tolerance in mice: survival and distress; conditions: tail vein, 24 h
CEA10 (clinical isolate) = experiment: MIC against azole and echinocandin resistant fungal strains (CLSI); type: cell-based, A. funigatus; conditions: read-out: MIC CEA10
Protocol: as §1

[7] = system: Af F12776, azole resistant (Y431C); experiment: as above; type: cell-based; conditions: read-out: MIC Af F12776
Protocol: as §1

[8] = system: Af F14946, azole resistant (G138C); experiment: as above; type: cell-based; conditions: read-out: MIC Af F14946
Protocol: as §1

C[C@@H]1[C@H](O)[C@@H](C)/C=C/C=C/C=C/C=C/C=C/C=C/C=C/[C@H](O[C@@H]2O[C@H](C)[C@@H](O)[C@H](N)[C@H]2O)C[C@@H]2O[C@](O)(C[C@@H](O)C[C@@H](O)[C@H](O)CC[C@@H](O)C[C@@H](O)CC(=O)O[C@H]1C)C[C@H](O)[C@H]2C(=O)O [C2′epiAmB]
# of mice alive [1]: 4/4 | # of mice distress-free [1]: 4/4

CC[C@H](C)C[C@H](C)CCCCCCCCC(=O)N[C@H]1C[C@@H](O)[C@@H](NCCN)NC(=O)[C@@H]2[C@@H](O)CCN2C(=O)[C@H]([C@H](O)CCN)NC(=O)[C@H]([C@H](O)[C@@H](O)c2ccc(O)cc2)NC(=O)[C@@H]2C[C@@H](O)CN2C(=O)[C@H]([C@@H](C)O)NC1=O [Caspofungin]
MIC [2]: > 3.3 µM | MIC [3]: 0.21 µM (≈ 0.23 µg/mL) | MIC [4]: 0.41 µM (≈ 0.448 µg/mL) | MIC (Af 3626 (ATCC strain)): 0.41 µM (≈ 0.448 µg/mL) | MIC [5]: 0.82 µM (≈ 0.897 µg/mL)

C[C@H](CCC(=O)O)[C@H]1CC[C@H]2[C@@H]3CC[C@@H]4C[C@H](O)CC[C@]4(C)[C@H]3C[C@H](O)[C@]12C [Deoxycholate]
Distressed ([6]; Dose 1 mg/kg): 0/4 | Survival (alive/total) ([6]; Dose 1 mg/kg): 4/4 | Distressed ([6]; Dose 4 mg/kg): 0/4 | Survival (alive/total) ([6]; Dose 4 mg/kg): 4/4 | Distressed ([6]; Dose 45 mg/kg): 0/4 | Survival (alive/total) ([6]; Dose 45 mg/kg): 4/4

CC[C@@H]([C@H](C)O)n1ncn(-c2ccc(N3CCN(c4ccc(OC[C@@H]5CO[C@@](Cn6cncn6)(c6ccc(F)cc6F)C5)cc4)CC3)cc2)c1=O [Posaconazole]
MIC (CEA10 (clinical isolate)): 0.18 µM (≈ 0.126 µg/mL) | MIC [4]: 1.43 µM (≈ 1 µg/mL)

C[C@@H](c1ncncc1F)[C@](O)(Cn1cncn1)c1ccc(F)cc1F [Voriconazole]
MIC [3]: > 11.5 µM | MIC [7]: > 11.5 µM | MIC [8]: > 11.5 µM | MIC [4]: > 11.5 µM | MIC (Af 3626 (ATCC strain)): 0.72 µM (≈ 0.252 µg/mL) | MIC [5]: 5.73 µM (≈ 2 µg/mL)
